Test results reported in the supplement of paper PMC8671470.
Where a name gives a salt, the structure may show the parent alone.

Legend:
Conditions in all cases: 72 h
[1] = system: myeloid leukemia patient primary cells Pat.12; test: cell viability (% survival relative to DMSO control); higher = less cytotoxic
In short: (§1)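 Where an area under the curve appears, it was computed with the drc and PharmacoGx R packages from log-logistic fits. Those fits used four parameters. The underlying viability data came from CellTiter-Glo after 72 h, normalised to DMSO and 10 μM proteasome-inhibitor wells, with thawed, Ficoll-purified AML or CML patient mononuclear cells at 10,000 cells/well in RPMI 1640 with 10% FBS on 384-well plates pre-printed with 70 compounds at five tenfold concentrations (1–10,000 nM) in duplicate.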

[2] = system: myeloid leukemia patient primary cells Pat.5; test: as above
In short: as §1

[3] = system: myeloid leukemia patient primary cells Pat.1; test: as above
In short: as §1

[4] = system: myeloid leukemia patient primary cells Pat.13; test: as above
In short: as §1

[5] = system: myeloid leukemia patient primary cells Pat.4; test: as above
In short: as §1

[6] = system: myeloid leukemia patient primary cells Pat.15; test: as above
In short: as §1

[7] = system: myeloid leukemia patient primary cells Pat.14; test: as above
In short: as §1

[8] = system: myeloid leukemia patient primary cells Pat.6; test: as above
In short: as §1

[9] = system: myeloid leukemia patient primary cells Pat.3; test: as above
In short: as §1

[10] = system: myeloid leukemia patient primary cells Pat.2; test: as above
In short: as §1

[11] = system: myeloid leukemia patient primary cells Pat.7; test: as above
In short: as §1

[12] = system: myeloid leukemia patient primary cells Pat.9; test: as above
In short: as §1

[13] = system: myeloid leukemia patient primary cells Pat.11; test: as above
In short: as §1

[14] = system: myeloid leukemia patient primary cells Pat.8; test: as above
In short: as §1

[15] = system: myeloid leukemia patient primary cells Pat.10; test: as above
In short: as §1

[16] = system: BV-173
In short: (§2)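 The IC50 was derived from log-logistic dose–response fitting. Each of fifteen myeloid leukaemia cell lines, seeded in RPMI 1640 within its linear growth range, was exposed in 384-well plates to five tenfold doses (1 to 10,000 nM) in duplicate for 72 h at 37 °C and 5% CO2. Luminescent ATP viability readings were normalised to vehicle and to a positive control at 10 µM before four-parameter curve fitting.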

[17] = system: KCL-22
In short: as §2

[18] = system: ML-2
In short: as §2

[19] = system: LAMA-84
In short: as §2

[20] = system: KG-1
In short: as §2

[21] = system: NOMO-1
In short: as §2

[22] = system: K-562
In short: as §2

[23] = system: THP-1
In short: as §2

[24] = system: SHI-1
In short: as §2

[25] = system: HL-60
In short: as §2

[26] = system: HEL
In short: as §2

[27] = system: KU-812
In short: as §2

[28] = system: MOLM-13
In short: as §2

[29] = system: Mono-Mac-6
In short: as §2

Cc1nnc(-c2ccc(N3CCC(Oc4ccccc4C(F)(F)F)CC3)nn2)s1 [MF-438]
cell viability [%]
Conditions	1 nM	10 nM	100 nM	1000 nM	10000 nM
[1]	99.4	97.1	> 100	87.5	90.5
[2]	32.8	93.8	67.7	46.4	27.4
[3]	78.8	85.8	97.1	90.5	82.8
[4]	86.8	86.4	86.9	80.8	97.4
[5]	83.7	98.5	87.9	85.8	68.8
[6]	97.4	89.5	98.7	86.9	69.8
[7]	85	> 100	87.8	83.5	92.2
[8]	95.4	98.9	99.5	83	85.3
[9]	76.3	77.5	72.9	61.3	74.1
[10]	> 100	99.8	95.4	87.6	89.7
[11]	> 100	93.3	99.7	74.4	41.2
[12]	56.2	91.2	87.2	69.3	75.2
[13]	94	96.6	> 100	> 100	90.6
[14]	86.9	94.5	77.7	86.9	94.9
[15]	80.2	89.2	96.8	87.5	> 100

Conditions	IC50 (cell viability) [µM]
[16]	> 10
[17]	2.29
[18]	> 10
[19]	> 10
[20]	> 10
[21]	> 10
[22]	0.0472
[23]	> 10
[24]	> 10
[25]	> 10
[26]	> 10
[27]	> 10
[28]	0.0687
[29]	> 10

CC(C)(Cc1ccccc1)NCC(O)c1ccc(O)c(NS(C)(=O)=O)c1 (configuration not stated) [Zinterol hydrochloride]
cell viability [%]
Conditions	1 nM	10 nM	100 nM	1000 nM	10000 nM
[1]	90.2	98.3	93.9	99	97.5
[2]	17	> 100	73	99.9	93.9
[3]	89.4	> 100	98.6	94.8	> 100
[4]	96.7	99.8	92.6	> 100	> 100
[5]	87.7	94.7	82.8	93.3	97.3
[6]	87	> 100	95.8	95.8	68.9
[7]	73.4	87.2	91.3	90.7	75.6
[8]	> 100	> 100	> 100	> 100	> 100
[9]	84.7	> 100	93.4	90.2	87.3
[10]	85.5	96.4	86	99.7	93
[11]	54.3	> 100	76.6	> 100	> 100
[12]	79.2	79.5	67.4	74.7	87.2
[13]	95.7	> 100	> 100	96.2	> 100
[14]	88.5	96.4	> 100	85.3	85.5
[15]	61	94.8	38.2	> 100	> 100

Conditions	IC50 (cell viability) [µM]
[16]	> 10
[17]	> 10
[18]	> 10
[19]	> 10
[20]	> 10
[21]	> 10
[22]	> 10
[23]	> 10
[24]	> 10
[25]	> 10
[26]	> 10
[27]	> 10
[28]	> 10
[29]	0.0976

Fc1ccc(CNc2ncnc3ccc(F)cc23)cc1 [Spautin 1]
cell viability [%]
Conditions	1 nM	10 nM	100 nM	1000 nM	10000 nM
[1]	97.3	87.3	> 100	> 100	72.6
[2]	84.9	17	78.9	25.9	2.01
[3]	97	84.4	88.1	81.7	46.4
[4]	97.7	78.3	89.4	75.7	34.9
[5]	77.2	87.3	96.2	70.4	50.5
[6]	96.5	90.9	91.5	79.4	25.9
[7]	87.2	56.5	90.5	60.7	31.2
[8]	> 100	86.8	96.6	87.9	42.2
[9]	63.4	49.7	> 100	33.1	69.9
[10]	97.1	88.7	> 100	87.3	77.2
[11]	74.6	70.9	> 100	58.8	30.3
[12]	67.2	7.92	65.9	12.7	5.45
[13]	> 100	96.2	97.9	92.2	84.7
[14]	93.5	82.1	85.6	80.7	51.1
[15]	73	15.3	96.8	78.5	47.9

Conditions	IC50 (cell viability) [µM]
[16]	2.75
[17]	> 10
[18]	> 10
[19]	1.49
[20]	1.57
[21]	> 10
[22]	1.34
[23]	> 10
[24]	> 10
[25]	9.64
[26]	9.11
[27]	1.39
[28]	> 10
[29]	> 10
